Assay results taken from patent US20100317593A1, “2,3-DIHYDRO-1H-INDENE COMPOUNDS” (ASTRAZENECA AB, priority 2009, published 2010).
pIC50: −log10 of the molar value.

biological target: T1, Glutathione-S-transferase tagged Bir3 domain of cIAP1 (L250-G350) (Homo sapiens, UniProt Q13490); test: Fluorescence polarization assay, cIAP1 Bir3 domain; assay type: binding; settings: 20 nM cIAP1-Bir3, 2.5 nM AbuRPF-K-5FAM tracer, 20-minute incubation
T1 construct: The cIAP1 Bir3 domain construct (aa L250-G350) was prepared from a full length cIAP1 clone; made in house; host or cells: Escherichia coli BL21 (DE3), pGEX-6P-1 vector
T1 sequence (Q13490 250-350): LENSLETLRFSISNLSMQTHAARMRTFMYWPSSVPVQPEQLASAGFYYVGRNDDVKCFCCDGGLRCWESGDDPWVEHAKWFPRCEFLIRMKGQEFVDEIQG
Method: Materials: The cIAP1 Bir3 domain construct (aa L250-G350) was prepared from a full length cIAP1 clone (NCBI Reference Sequence: NM_001166.3). PCR was used to generate the Bir3 fragment which was inserted into a pGEX-6P-1 vector (GE LifeSciences) as a BamHI/XhoI fragment. Protein was prepared in Escherichia coli BL21 (DE3) grown at 37° C. containing ampicillin to an OD600 of 0.6. Protein expression was induced by 1 mM isopropyl β-D-1-thiogalactopyranoside (IPTG) for 3.75 hours.
Cells were lysed by sonication in buffer containing 100 mM Tris (pH 7.5), 150 mM NaCl, 5 mm dithiothreitol (DTT), 50 μM zinc acetate (ZnAc), ethylenediamine tetraacetic acid (EDTA) free Complete protease inhibitors (Roche Applied Science), 100 μg/mL lysozyme, and 0.5% Triton-X100. DNAse was added to the mixture after sonication. Proteins were purified from the soluble fraction using Glutathione Sepharose 4B resin (GE Lifesciences) followed by desalting on a PD-10 column (GE Lifesciences). This was followed by purification over an SEC 200 resin (GE Lifesciences). Final storage buffer consisted of 25 mM Tris, pH 7.5, 200 mM NaCl, 5 mM DTT, 50 uM ZnAc, 10% glycerol.
The fluorescence polarization assay was developed using Glutathione-S-transferase tagged Bir3 domain of cIAP1 (L250-G350). The tracer used was a synthetic peptide conjugated to 5-carboxyfluorescein (AbuRPF-K-5FAM).
Methods: Dilutions of cIAP1-Bir3 (20 nM) were added to 2.5 nM of fluorescent peptide tracer in assay buffer (final concentrations of 20 mM HEPES, pH 7.5, 1 mM DTT, 0.005% Tween-20 and 50 mM NaCl) containing various dilutions of binding inhibitors. Samples were read by a Tecan Ultra Evolution (Tecan US Inc, Durham N.C.) after a 20-minute incubation.
Fluorescence polarization values were plotted as a function of the antagonist concentration and the IC50 values were determined.

**Q.** With C#CCO[C@@H]1Cc2ccccc2[C@@H]1NC(=O)[C@@H]1CCCN1C(=O)[C@@H](NC(=O)[C@H](C)NC)C1CCCCC1 [Example 2, (S)-1-((S)-2-cyclohexyl-2-((S)-2-(methylamino)propanamido)acetyl)-N-((1S,2R)-2-(prop-2-ynyloxy)-2,3-dihydro-1H-inden-1-yl)pyrrolidine-2-carboxamide] as the molecule, how does the pIC50 read?
**A.** Its pIC50 is 7.82.

**Q.** CN[C@@H](C)C(=O)N[C@H](C(=O)N1CCC[C@H]1C(=O)N[C@H]1c2ccccc2C[C@H]1OCC#CC#CCO[C@@H]1Cc2ccccc2[C@@H]1NC(=O)[C@@H]1CCCN1C(=O)[C@@H](NC(=O)[C@H](C)NC)C1CCCCC1)C1CCCCC1 [Example 1, (S,S,2S,2′S)-N,N′-((1S,1′S,2R,2′R)-2,2′-(hexa-2,4-diyne-1,6-diylbis(oxy))bis(2,3-dihydro-1H-indene-2,1-diyl))bis(1-((S)-2-cyclohexyl-2-((S)-2-(methylamino)propanamido)acetyl)pyrrolidine-2-carboxamide)] was tested. Which pIC50 did it give?
**A.** The pIC50 was 7.92.

**Q.** CN[C@@H](C)C(=O)N[C@H](C(=O)N1CCC[C@H]1C(=O)N[C@H]1c2ccccc2C[C@@H]1OCC#CC#CCO[C@H]1Cc2ccccc2[C@@H]1NC(=O)[C@@H]1CCCN1C(=O)[C@@H](NC(=O)[C@H](C)NC)C1CCCCC1)C1CCCCC1 [Example 4, (S,S,2S,2′S)-N,N′-((1S,1′S,2S,2′S)-2,2′-(hexa-2,4-diyne-1,6-diylbis(oxy))bis(2,3-dihydro-1H-indene-2,1-diyl))bis(1-((S)-2-cyclohexyl-2-((S)-2-(methylamino)propanamido)acetyl)pyrrolidine-2-carboxamide)] was tested. Which pIC50 did it give?
**A.** The pIC50 was 7.37.

**Q.** CN[C@@H](C)C(=O)N[C@H](C(=O)N1CCC[C@H]1C(=O)N[C@H]1c2ccccc2C[C@H]1OCCCCCCO[C@@H]1Cc2ccccc2[C@@H]1NC(=O)[C@@H]1CCCN1C(=O)[C@@H](NC(=O)[C@H](C)NC)C1CCCCC1)C1CCCCC1 [Example 3, (S,S,2S,2′S)-N,N′-((1S,1′S,2R,2′R)-2,2′-(Hexane-1,6-diylbis(oxy))bis(2,3-dihydro-1H-indene-2,1-diyl))bis(1-((S)-2-cyclohexyl-2-((S)-2-(methylamino)propanamido)acetyl)pyrrolidine-2-carboxamide)] was tested. Which pIC50 did it give?
**A.** The pIC50 was 7.89.
